Experimental data from patent US20220089602A1, “COMPOUNDS THAT INDUCE FERROPTIC CELL DEATH” (The Board of Trustees of the University of Illinois, priority 2019, published 2022).

Key:
S. aureus = assay: Antibacterial activity (MIC); format: cell-based; details: Staphylococcus aureus; gram positive (S. aureus)
[1] = Pharmacokinetic assessment; format: in vivo, C57BL/6 mice
Protocol: The protocol was approved by the IACUC at the University of Illinois at Urbana-Champaign (Protocol Number: 14173). In these studies, 10- to 12-week-old female C57BL/6 mice (purchased from Charles River) were used. Ferroptocide was formulated in 100% PEG400. Mice were treated with ferroptocide (40 mg/kg) via i.p. with three mice per time point (15, 30, 45, 60, 120, 240, 480, and 1440 min). At specific time points, mice were sacrificed, and blood was collected, centrifuged; the serum was frozen at −80° C. until analysis. The proteins in a 50 μL aliquot of serum were precipitated by the addition of 50 μL acetonitrile and the sample was centrifuged to remove the proteins. Serum concentrations of ferroptocide were determined by reverse phase HPLC (Shimadzu Corporation, Japan). PK parameters were determined using GraphPad Prism Version 5.00 for Windows.

PTGES2 = biological target: T1, PTGES2 (Homo sapiens, UniProt Q9H7Z7); assay: Biotin-streptavidin pulldown with P29, competition by ferroptocide, LC/LC-MS/MS; format: binding; details: DMSO/ferroptocide spectral count ratio of P29-labeled enriched proteins
T1 construct: endogenous in cells; host or cells: HCT 116 (and ES-2) cells
T1 sequence (Q9H7Z7 whole entry): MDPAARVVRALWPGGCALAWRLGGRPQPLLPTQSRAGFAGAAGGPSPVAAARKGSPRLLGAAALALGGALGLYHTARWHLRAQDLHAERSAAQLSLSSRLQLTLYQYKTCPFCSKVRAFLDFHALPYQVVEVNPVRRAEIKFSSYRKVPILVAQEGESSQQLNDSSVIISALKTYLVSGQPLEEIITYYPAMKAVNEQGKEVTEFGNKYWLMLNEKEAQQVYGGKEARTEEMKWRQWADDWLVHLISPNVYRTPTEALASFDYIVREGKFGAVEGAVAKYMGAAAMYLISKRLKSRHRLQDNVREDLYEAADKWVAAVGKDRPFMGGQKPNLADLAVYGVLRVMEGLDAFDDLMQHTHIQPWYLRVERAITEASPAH
Protocol: (§1) ES-2 and HCT 116 (20×10^6 cells/flask) were plated in T175 flasks and treated with DMSO or 20 µM ferroptocide for 1 hr followed by treatment with 20 μM P29 for 1 hr. Cells were lysed via sonication (6500 g, 4 min) in DPBS and the soluble proteome was isolated after […] (45000 g, 45 min). Bradford assay was used to determine protein concentration. The soluble protein lysates in DPBS (pH 7.4) (500 μL, 2 mg/mL) were treated with biotin-azide (100 μM, 50× stock in DMSO), TCEP (1 mM, 50× fresh stock in water), TBTA ligand (100 μM, 17× stock in DMSO:t-butanol=1:4), and copper(II) sulfate (1 mM, 50× stock in water) followed by incubation at r.t. for 1 hr. Samples were centrifuged (6500 g, 4 min, 4° C.) and the supernatant was discarded. The pellets were resuspended in cold methanol by sonication (2×) and then were solubilized in DPBS containing 1.2% SDS via sonication and heating (90° C., 5 min). A final SDS concentration of 0.2% was achieved after addition of 5 mL of DPBS to the SDS-solubilized proteome samples. The solution was incubated overnight at 4° C. with 100 μL of streptavidin-agarose beads (ThermoFisher, washed 3× with DPBS to remove storage buffer). Samples were rotated at 22° C. for 2 hr before being washed by 5 mL 0.2% SDS/DPBS, 3×5 mL DPBS, and 3×5 mL water. The beads were pelleted by centrifugation (1400×g, 3 min) between washes.
(§2) The washed beads were suspended in 500 μL of 6 M urea/DPBS and 10 mM DTT (from 20× stock in water) and heated for 20 min on a 65° C. heat block. Upon addition of iodoacetamide (20 mM from 50× stock in water), samples were allowed to react at 37° C. for 30 min while shaking. Following reduction and alkylation, the beads were pelleted by centrifugation and resuspended in 200 μL of 2 M urea/DPBS, 1 mM CaCl2) (100× stock in water), and sequencing-grade trypsin (2 μg). The bead digestion occurred overnight at 37° C. while shaking. Next day, the beads were pelleted by centrifugation and washed with 2×50 μL water. The washes were combined with the supernatant from the trypsin digestion step, and after addition of formic acid (15 μL) to each sample, they were stored at −20° C. until mass spectrometry analysis.
(§3) LC/LC-MS/MS analysis was performed on an LTQ-Orbitrap Discovery mass spectrometer (ThermoFisher) coupled to an Agilent 1200 series HPLC. Peptide digests were pressure loaded onto a 250 m fused silica desalting column packed with 4 cm of Aqua C18 reverse phase resin (Phenomenex). The peptides were eluted onto a biphasic column (100 m fused silica with a 5, tip, packed with 10 cm C18 and 4 cm Partisphere strong cation exchange resin (SCX, Whatman) using a gradient 5-100% Buffer B in Buffer A (Buffer A: 95% water, 5% acetonitrile, 0.1% formic acid; Buffer B: 20% water, 80% acetonitrile, 0.1% formic acid). The peptides were then eluted from the SCX onto the C18 resin and into the mass spectrometer using 4 salt steps previously described (Nat. Protoc. 2, 1414-1425, (2007)). The flow rate through the column was set to ˜0.25 μL/min and the spray voltage was set to 2.75 kV. One full MS scan (FTMS) (400-1800 MW) was followed by 8 data dependent scans (ITMS) of the n^th most intense ions. The tandem MS data were searched using the SEQUEST algorithm using a concatenated target/decoy variant of the human UniProt database. A static modification of +57.02146 on cysteine was specified to account for alkylation by iodoacetamide. MS2 spectra matches were assembled into protein identifications and filtered using DTASelect2.0 to generate a list of protein hits with a peptide false-discovery rate of 5%. The mass spectrometry proteomics data have been deposited to the ProteomeXchange Consortium via the PRIDE [1] partner repository with the dataset identifier PXD012805.

TXN = biological target: T2, TXN (Homo sapiens, UniProt P10599); assay: as above; format: binding; details: DMSO/ferroptocide spectral count ratio of P29-labeled enriched proteins
T2 construct: endogenous in cells; host or cells: HCT 116 (and ES-2) cells
T2 sequence (P10599 whole entry): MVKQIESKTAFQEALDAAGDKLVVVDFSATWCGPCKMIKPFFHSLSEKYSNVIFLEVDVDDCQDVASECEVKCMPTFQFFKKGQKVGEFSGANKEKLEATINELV
Protocol: as §1, §2, §3

TXNRD3 = biological target: T3, TXNRD3 (Homo sapiens, UniProt Q86VQ6); assay: as above; format: binding; details: DMSO/ferroptocide spectral count ratio of P29-labeled enriched proteins
T3 construct: endogenous in cells; host or cells: HCT 116 (and ES-2) cells
T3 sequence (Q86VQ6 whole entry): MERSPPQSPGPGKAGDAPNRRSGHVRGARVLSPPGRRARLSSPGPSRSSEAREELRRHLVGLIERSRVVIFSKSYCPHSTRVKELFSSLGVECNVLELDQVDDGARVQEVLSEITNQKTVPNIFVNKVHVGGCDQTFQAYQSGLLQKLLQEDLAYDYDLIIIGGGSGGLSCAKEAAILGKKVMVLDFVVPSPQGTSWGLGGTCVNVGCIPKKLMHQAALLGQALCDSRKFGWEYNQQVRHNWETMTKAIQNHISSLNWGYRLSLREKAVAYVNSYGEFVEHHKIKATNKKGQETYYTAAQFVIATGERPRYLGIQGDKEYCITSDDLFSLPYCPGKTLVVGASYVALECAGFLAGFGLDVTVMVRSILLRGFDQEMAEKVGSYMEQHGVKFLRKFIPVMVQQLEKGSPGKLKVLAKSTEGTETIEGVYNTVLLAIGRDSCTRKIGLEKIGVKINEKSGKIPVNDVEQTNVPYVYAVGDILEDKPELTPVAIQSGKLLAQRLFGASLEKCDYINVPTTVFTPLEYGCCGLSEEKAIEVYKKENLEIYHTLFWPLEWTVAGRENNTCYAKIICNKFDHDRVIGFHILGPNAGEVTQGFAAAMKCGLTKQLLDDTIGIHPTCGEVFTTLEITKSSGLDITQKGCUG
Protocol: as §1, §2, §3

PGLS = biological target: T4, PGLS (Homo sapiens, UniProt O95336); assay: as above; format: binding; details: DMSO/ferroptocide spectral count ratio of P29-labeled enriched proteins
T4 construct: endogenous in cells; host or cells: HCT 116 (and ES-2) cells
T4 sequence (O95336 whole entry): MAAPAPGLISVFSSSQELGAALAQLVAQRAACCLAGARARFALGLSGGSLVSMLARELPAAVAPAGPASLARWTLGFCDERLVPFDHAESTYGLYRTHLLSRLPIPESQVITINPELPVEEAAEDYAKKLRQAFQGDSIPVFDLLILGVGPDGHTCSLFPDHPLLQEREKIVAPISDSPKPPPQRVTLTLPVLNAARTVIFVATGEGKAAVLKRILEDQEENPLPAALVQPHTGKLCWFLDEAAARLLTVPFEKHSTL
Protocol: as §1, §2, §3

TXNRD1 = biological target: T5, TXNRD1 (Homo sapiens, UniProt Q16881); assay: as above; format: binding; details: DMSO/ferroptocide spectral count ratio of P29-labeled enriched proteins
T5 construct: HCT 116 cells were pre-treated with ferroptocide or DMSO, followed by treatment with P29; endogenous in cells; host or cells: HCT 116 (and ES-2) cells
T5 sequence (Q16881 151-649 limits assumed): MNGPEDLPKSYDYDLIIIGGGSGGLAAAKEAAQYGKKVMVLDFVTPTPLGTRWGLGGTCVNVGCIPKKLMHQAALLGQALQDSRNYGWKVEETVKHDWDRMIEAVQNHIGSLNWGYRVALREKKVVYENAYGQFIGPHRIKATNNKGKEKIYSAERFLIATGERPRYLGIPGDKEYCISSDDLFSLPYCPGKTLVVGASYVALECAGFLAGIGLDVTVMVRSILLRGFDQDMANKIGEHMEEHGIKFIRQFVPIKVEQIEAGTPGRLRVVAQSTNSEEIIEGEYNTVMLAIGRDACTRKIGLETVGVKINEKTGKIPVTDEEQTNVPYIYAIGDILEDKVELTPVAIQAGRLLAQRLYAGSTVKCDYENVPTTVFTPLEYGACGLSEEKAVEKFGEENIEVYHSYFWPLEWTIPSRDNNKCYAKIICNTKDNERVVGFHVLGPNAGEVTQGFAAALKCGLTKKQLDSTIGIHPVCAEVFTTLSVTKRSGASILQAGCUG
Protocol: as §1, §2, §3

TXNRD2 = biological target: T6, TXNRD2 (Homo sapiens, UniProt Q9NNW7); assay: as above; format: binding; details: DMSO/ferroptocide spectral count ratio of P29-labeled enriched proteins
T6 construct: HCT 116 cells were pre-treated with ferroptocide or DMSO, followed by treatment with P29; endogenous in cells; host or cells: HCT 116 (and ES-2) cells
T6 sequence (Q9NNW7 37-524): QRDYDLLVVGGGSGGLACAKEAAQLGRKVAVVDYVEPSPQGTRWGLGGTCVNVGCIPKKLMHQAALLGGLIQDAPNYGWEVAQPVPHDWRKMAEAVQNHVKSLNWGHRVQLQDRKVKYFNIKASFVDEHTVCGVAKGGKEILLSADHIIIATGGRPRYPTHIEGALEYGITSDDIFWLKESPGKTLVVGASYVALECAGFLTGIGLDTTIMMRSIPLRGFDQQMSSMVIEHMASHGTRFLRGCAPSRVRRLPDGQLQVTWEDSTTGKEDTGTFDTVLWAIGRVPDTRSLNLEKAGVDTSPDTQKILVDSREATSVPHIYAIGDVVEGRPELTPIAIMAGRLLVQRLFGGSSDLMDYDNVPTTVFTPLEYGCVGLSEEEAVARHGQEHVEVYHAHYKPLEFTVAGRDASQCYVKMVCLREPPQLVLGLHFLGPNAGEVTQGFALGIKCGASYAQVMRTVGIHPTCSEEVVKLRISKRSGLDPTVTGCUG
Protocol: as §1, §2, §3

GSTO1 = biological target: T7, GSTO1 (Homo sapiens, UniProt P78417); assay: as above; format: binding; details: DMSO/ferroptocide spectral count ratio of P29-labeled enriched proteins
T7 construct: endogenous in cells; host or cells: HCT 116 (and ES-2) cells
T7 sequence (P78417 whole entry): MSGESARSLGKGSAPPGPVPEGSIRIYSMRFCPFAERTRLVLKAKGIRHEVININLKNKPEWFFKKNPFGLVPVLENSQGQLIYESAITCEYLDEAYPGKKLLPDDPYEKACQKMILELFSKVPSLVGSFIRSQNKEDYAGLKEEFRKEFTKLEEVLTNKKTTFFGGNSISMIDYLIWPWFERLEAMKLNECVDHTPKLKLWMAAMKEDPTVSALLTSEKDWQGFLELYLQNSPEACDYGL
Protocol: as §1, §2, §3

KEAP1 = biological target: T8, KEAP1 (Homo sapiens, UniProt Q14145); assay: as above; format: binding; details: DMSO/ferroptocide spectral count ratio of P29-labeled enriched proteins
T8 construct: endogenous in cells; host or cells: HCT 116 (and ES-2) cells
T8 sequence (Q14145 whole entry): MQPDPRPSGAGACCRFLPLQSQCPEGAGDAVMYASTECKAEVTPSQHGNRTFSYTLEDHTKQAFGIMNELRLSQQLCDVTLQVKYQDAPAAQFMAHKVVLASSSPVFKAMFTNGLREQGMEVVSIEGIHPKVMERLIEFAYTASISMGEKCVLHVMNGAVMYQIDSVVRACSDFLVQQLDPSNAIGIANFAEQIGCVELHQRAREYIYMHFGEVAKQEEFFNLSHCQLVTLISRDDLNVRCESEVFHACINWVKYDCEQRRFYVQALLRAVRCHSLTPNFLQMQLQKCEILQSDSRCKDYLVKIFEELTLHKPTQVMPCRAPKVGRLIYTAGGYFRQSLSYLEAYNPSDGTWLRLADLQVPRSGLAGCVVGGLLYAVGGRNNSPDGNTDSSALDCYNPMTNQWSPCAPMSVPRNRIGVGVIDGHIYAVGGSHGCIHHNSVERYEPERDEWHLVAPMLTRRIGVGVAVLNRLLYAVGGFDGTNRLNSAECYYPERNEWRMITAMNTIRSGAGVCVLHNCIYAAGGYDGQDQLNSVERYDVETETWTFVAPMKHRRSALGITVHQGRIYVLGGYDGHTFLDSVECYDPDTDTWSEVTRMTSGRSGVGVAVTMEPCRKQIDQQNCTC
Protocol: as §1, §2, §3

PDP1 = biological target: T9, PDP1 (Homo sapiens, UniProt Q9P0J1); assay: as above; format: binding; details: DMSO/ferroptocide spectral count ratio of P29-labeled enriched proteins
T9 construct: endogenous in cells; host or cells: HCT 116 (and ES-2) cells
T9 sequence (Q9P0J1 72-537): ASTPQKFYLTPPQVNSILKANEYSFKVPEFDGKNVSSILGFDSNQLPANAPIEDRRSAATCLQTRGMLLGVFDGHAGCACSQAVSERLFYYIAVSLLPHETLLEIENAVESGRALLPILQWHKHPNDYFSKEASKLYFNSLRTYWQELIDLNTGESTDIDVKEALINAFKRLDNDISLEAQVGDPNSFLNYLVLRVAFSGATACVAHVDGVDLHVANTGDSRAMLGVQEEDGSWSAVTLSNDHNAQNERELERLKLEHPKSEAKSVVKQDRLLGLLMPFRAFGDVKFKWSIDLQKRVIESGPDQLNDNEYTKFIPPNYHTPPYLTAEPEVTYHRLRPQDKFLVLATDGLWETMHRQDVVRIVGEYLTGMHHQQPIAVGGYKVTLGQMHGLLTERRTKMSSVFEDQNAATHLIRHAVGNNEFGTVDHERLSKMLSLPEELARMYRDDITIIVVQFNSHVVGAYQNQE
Protocol: as §1, §2, §3

[2] = female, mouse, ip, 40 mg/kg i.p., C57BL/6 mice, serum

In the case of `C[C@@H]1CC[C@@]23C[C@H](O)C(=O)[C@@]2(O)[C@]1(C)[C@H](OC(=O)CCl)C[C@@H](C1=CCn2c(=O)n(-c4ccccc4)c(=O)n2C1)[C@@H]3C` [Compound P18, ferroptocide], the MIC (S. aureus) is reported as > 64 µg/mL, the AUC [1, 2] is reported as 7040 ng·h/mL and the half-life [1, 2] is reported as 9.96 min. The “pharmacokinetics (in words)” value ([1]; mice) was “poor pharmacokinetics”, the “Fold Change” value (PTGES2) was 18 and the “Fold Change” value (TXN) was 11.1. The “Fold Change” value (TXNRD3) was 7.4, the “Fold Change” value (PGLS) was 2.7 and the “Fold Change” value (TXNRD1) was 4.9. For the same compound, the “Fold Change” value (TXNRD2) was 2, the “Fold Change” value (GSTO1) was 3.6 and the “Fold Change” value (KEAP1) was 3.1. For the same compound, the “Fold Change” value (PDP1) was 3.7.
